Biological target: h5-HT2c (vsv) (Homo sapiens, UniProt P28335, I156V/I160V/N158S)
Test: cell-based

Chain of h5-HT2c (vsv) (P28335 33-458 I156V/N158S/I160V limits assumed): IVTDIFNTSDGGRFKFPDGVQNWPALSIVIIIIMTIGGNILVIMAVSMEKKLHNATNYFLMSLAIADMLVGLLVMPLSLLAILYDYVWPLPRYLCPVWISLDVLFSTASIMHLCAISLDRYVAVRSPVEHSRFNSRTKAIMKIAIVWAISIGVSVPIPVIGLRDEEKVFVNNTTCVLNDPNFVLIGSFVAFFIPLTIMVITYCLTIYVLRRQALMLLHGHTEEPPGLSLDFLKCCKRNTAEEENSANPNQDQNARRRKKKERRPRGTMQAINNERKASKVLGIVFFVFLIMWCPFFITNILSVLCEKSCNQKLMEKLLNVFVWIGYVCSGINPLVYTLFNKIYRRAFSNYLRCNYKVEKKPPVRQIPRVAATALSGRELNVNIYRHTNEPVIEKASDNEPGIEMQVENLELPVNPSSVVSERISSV

SMILES: C=C(C)c1ccc2c(n1)CCNCC2
- EC50: 79.1 nM

SMILES: CN(C)c1ccc2c(n1)CCNCC2
- EC50: 213 nM

SMILES: CC(C)c1ccc2c(n1)C(C)CNCC2 (stereo not drawn)
- EC50: 295 nM

SMILES: CCN(C)c1ccc2c(n1)CCNCC2
- EC50: 18 nM

SMILES: CCN(CC)c1ccc2c(n1)CCNCC2
- EC50: 77.3 nM

SMILES: c1cc2c(nc1N1CCCCC1)CCNCC2
- EC50: 10.6 nM

SMILES: c1cc2c(nc1N1CCOCC1)CCNCC2
- EC50: 63.9 nM

SMILES: COc1nc2c(cc1Br)CCNCC2
- EC50: 64.1 nM

SMILES: c1cc2c(nc1N1CCCCCC1)CCNCC2
- EC50: 10.2 nM

SMILES: CC(C)(C)c1ccc2c(n1)CCNCC2
- EC50: 106 nM

SMILES: c1cc2c(nc1N1CCCNCC1)CCNCC2
- EC50: 262 nM

SMILES: CCN(C)c1nc2c(cc1Br)CCNCC2
- EC50: 100 nM

SMILES: Brc1cc2c(nc1N1CCCCC1)CCNCC2
- EC50: 192 nM

SMILES: CCN(C)c1ccc2c(n1)C(C)CNCC2 (stereo not drawn)
- EC50: 29.2 nM

SMILES: CC1CNCCc2ccc(N3CCCCC3)nc21 (stereo not drawn)
- EC50: 13.1 nM

SMILES: CC1CNCCc2ccc(N3CCOCC3)nc21 (stereo not drawn)
- EC50: 47.7 nM

SMILES: c1cc2c(nc1N1CCC3(CC1)OCCO3)CCNCC2
- EC50: 290 nM

SMILES: CC(C)C1CNCCc2ccc(N3CCCCC3)nc21 (stereo not drawn)
- EC50: 65.4 nM

SMILES: CC(C)C1CNCCc2ccc(N3CCCCCC3)nc21 (stereo not drawn)
- EC50: 139 nM

SMILES: CC1CNCCc2ccc(N3CCCCCC3)nc21 (stereo not drawn)
- EC50: 6.2 nM

SMILES: O=C1CCN(c2ccc3c(n2)CCNCC3)CC1
- EC50: 299 nM

SMILES: CC(C)N(C)c1ccc2c(n1)CCNCC2
- EC50: 85.4 nM

SMILES: FC1(F)CCN(c2ccc3c(n2)CCNCC3)CC1
- EC50: 11.4 nM

SMILES: FC1CCN(c2ccc3c(n2)CCNCC3)CC1
- EC50: 7.9 nM

SMILES: c1cc2c(nc1N1CCSCC1)CCNCC2
- EC50: 2.3 nM

SMILES: c1cc2c(nc1N1CCCOCC1)CCNCC2
- EC50: 10.5 nM

SMILES: Clc1cc2c(nc1N1CCCCC1)CCNCC2
- EC50: 74.2 nM

SMILES: Clc1cc2c(nc1N1CCOCC1)CCNCC2
- EC50: 176 nM

SMILES: CCC1CNCCc2ccc(N(C)CC)nc21 (stereo not drawn)
- EC50: 35.9 nM

SMILES: CCC1CNCCc2ccc(N3CCCCC3)nc21 (stereo not drawn)
- EC50: 16.4 nM

SMILES: CCC1CNCCc2ccc(N3CCOCC3)nc21 (stereo not drawn)
- EC50: 101 nM

SMILES: CCN(C)c1ccc2c(n1)[C@H](C)CNCC2
- EC50: 8.3 nM

SMILES: C[C@@H]1CNCCc2ccc(N3CCCCC3)nc21
- EC50: 2.1 nM

SMILES: C[C@@H]1CNCCc2ccc(N3CCOCC3)nc21
- EC50: 58.1 nM

SMILES: c1cc2c(nc1N1C3CCCC1CC3)CCNCC2
- EC50: 138 nM

SMILES: FC1(F)CCCN(c2ccc3c(n2)CCNCC3)CC1
- EC50: 24 nM

SMILES: [O-][S+]1CCN(c2ccc3c(n2)CCNCC3)CC1
- EC50: 5.1 nM

SMILES: CC1CNCCc2ccc(N3CCC(F)(F)CC3)nc21 (stereo not drawn)
- EC50: 29.4 nM

SMILES: CC1CNCCc2ccc(N3CCC(F)CC3)nc21 (stereo not drawn)
- EC50: 13.6 nM

SMILES: CC1CNCCc2ccc(N3CCCOCC3)nc21 (stereo not drawn)
- EC50: 21.7 nM

SMILES: FC1CCN(c2nc3c(cc2Cl)CCNCC3)CC1
- EC50: 95.8 nM

SMILES: Clc1cc2c(nc1N1CCCOCC1)CCNCC2
- EC50: 67.8 nM

Source: US20090312306A1, “TETRAHYDRO-5H-PYRIDO[2,3-D]AZEPINES AS 5-HT2C LIGANDS” (priority 2006, published 2009)
